# Measured values: publication PMC2816653, “Pre-clinical evaluation of cyclin-dependent kinase 2 and 1 inhibition in anti-estrogen-sensitive and resistant breast cancer cells” (British Journal of Cancer, 2009)
# Experiments:
# Assay in all cases: biochemical
# Design in all cases: in vitro kinase inhibition assay
# CDK9/cyclin T = CDK9/cyclin T (Homo sapiens, UniProt P50750); conditions: read-out: NU2058 % inhibition
# CDK5/p25 = target: T1, CDK5/p25 (Homo sapiens, UniProt Q00535); conditions: read-out: NU2058 % inhibition
# T1 construct: with p25
# T1 sequence (Q00535 whole entry): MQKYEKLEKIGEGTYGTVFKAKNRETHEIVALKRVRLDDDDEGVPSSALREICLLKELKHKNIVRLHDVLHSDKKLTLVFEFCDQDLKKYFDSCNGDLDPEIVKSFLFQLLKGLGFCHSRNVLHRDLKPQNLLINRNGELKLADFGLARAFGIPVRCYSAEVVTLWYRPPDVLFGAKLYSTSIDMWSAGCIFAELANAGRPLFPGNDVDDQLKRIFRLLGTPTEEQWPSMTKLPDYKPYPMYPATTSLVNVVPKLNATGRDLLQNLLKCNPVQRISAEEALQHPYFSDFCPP
# T1 sequence (Q15078 whole entry partner): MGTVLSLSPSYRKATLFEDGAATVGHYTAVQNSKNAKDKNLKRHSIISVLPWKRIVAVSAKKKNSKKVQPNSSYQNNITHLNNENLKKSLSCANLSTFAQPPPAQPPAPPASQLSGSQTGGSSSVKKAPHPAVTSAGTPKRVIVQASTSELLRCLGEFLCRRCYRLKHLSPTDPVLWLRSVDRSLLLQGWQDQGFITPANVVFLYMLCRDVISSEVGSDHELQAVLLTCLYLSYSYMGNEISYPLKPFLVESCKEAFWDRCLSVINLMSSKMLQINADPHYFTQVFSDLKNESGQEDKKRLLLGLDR
# DYRK1a = DYRK1a (Homo sapiens, UniProt Q13627)
# Chain of CDK9/cyclin T (P50750 whole entry): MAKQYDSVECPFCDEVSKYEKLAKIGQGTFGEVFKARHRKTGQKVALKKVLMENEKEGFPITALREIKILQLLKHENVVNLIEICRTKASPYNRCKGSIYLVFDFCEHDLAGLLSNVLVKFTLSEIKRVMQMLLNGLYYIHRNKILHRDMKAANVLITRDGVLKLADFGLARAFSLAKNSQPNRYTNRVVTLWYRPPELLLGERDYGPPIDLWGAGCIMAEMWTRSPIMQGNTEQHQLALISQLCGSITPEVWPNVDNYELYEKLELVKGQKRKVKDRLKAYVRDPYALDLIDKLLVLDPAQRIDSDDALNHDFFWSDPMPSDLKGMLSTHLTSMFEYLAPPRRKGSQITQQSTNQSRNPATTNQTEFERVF
# Chain of CDK9/cyclin T (O60563 whole entry partner): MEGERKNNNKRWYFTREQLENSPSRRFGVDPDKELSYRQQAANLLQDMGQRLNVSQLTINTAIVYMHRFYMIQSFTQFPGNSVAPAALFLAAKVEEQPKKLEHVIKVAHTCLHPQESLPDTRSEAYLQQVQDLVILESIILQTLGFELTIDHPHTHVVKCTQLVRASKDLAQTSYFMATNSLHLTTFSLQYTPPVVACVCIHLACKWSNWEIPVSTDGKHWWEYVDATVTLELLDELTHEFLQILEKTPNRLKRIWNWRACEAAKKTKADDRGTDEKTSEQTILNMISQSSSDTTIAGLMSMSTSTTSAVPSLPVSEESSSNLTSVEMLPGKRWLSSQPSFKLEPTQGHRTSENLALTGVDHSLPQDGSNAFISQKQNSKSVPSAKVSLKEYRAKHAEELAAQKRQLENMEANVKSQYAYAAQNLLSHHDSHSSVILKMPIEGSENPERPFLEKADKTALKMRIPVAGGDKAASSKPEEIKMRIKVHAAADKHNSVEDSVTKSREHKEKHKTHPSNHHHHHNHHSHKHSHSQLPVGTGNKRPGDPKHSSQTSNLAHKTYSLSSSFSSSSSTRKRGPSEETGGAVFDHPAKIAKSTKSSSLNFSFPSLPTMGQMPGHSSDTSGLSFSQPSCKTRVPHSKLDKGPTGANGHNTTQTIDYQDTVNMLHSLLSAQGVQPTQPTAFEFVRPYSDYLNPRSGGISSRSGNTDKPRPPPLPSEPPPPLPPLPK
inhibition at 100 µM (CDK9/cyclin T),inhibition at 100 µM (CDK5/p25),IC50 (DYRK1a),SMILES
43%,50%,–,Nc1nc(OCC2CCCCC2)c2nc[nH]c2n1 [NU2058]
–,–,950 nM,NS(=O)(=O)c1ccc(Nc2nc(OCC3CCCCC3)c3nc[nH]c3n2)cc1 [NU6102]
